# In patent publication US9125913B2, “Bcl-2-selective apoptosis-inducing agents for the treatment of cancer and immune diseases” (AbbVie Inc., priority 2008, dated 2015):
# System: GST-Bcl-2
# Experiment: TR-FRET binding assay, Bcl-2
# Settings: TR-FRET Ki values
# Method: Tb-anti-GST antibody was purchased from Invitrogen (Catalog No. PV4216).
# Representative compounds were serially diluted in dimethyl sulfoxide (DMSO) starting at 50 μM (2× starting concentration; 10% DMSO) and 10 μL were transferred into a 384-well plate.
# The samples were then mixed on a shaker for 1 minute and incubated for an additional 3 hours at room temperature. For each assay, the probe/antibody and protein/probe/antibody were included on each assay plate as negative and positive controls, respectively. Fluorescence was measured on the Envision (Perkin Elmer) using a 340/35 nm excitation filter and 520/525 (F-Bak peptide) and 495/510 nm (Tb-labeled anti-Histidine antibody) emission filters.
# The inhibition constant (Ki) is the dissociation constant of an enzyme-inhibitor complex or a protein/small molecule complex, wherein the small molecule is inhibiting binding of one protein to another protein or peptide. […] Inhibition constants were determined using Wang's equation (Wang Z-X., An Exact Mathematical Expression For Describing Competitive Binding Of Two Different Ligands To A Protein Molecule. FEBS Lett. 1995, 360:111-4).
row,Compound,Binding selectivity ratio (Bcl-XL Ki/Bcl-2 Ki)
1,"CN1CCC(Nc2ccc(S(=O)(=O)NC(=O)c3ccc(N4CCN(CC5=C(c6ccc(Cl)cc6)CC(C)(C)CC5)C(CO)C4)cc3Oc3ccc4[nH]ccc4c3)cc2[N+](=O)[O-])CC1 (centres unmarked) [EXAMPLE 218, 4-[4-{[2-(4-chlorophenyl)-4,4-dimethylcyclohex-1-en-1-yl]methyl}-3-(hydroxymethyl)piperazin-1-yl]-2-(1H-indol-5-yloxy)-N-({4-[(1-methylpiperidin-4-yl)amino]-3-nitrophenyl}sulfonyl)benzamide]",738.2
2,"O=C(NS(=O)(=O)c1ccc(NCC2CCOCC2)c([N+](=O)[O-])c1)c1ccc(N2CCN(CC3=C(c4ccc(Cl)cc4)CCC(O)C3)CC2)cc1Oc1ccc2[nH]ccc2c1 (centres unmarked) [EXAMPLE 248, 4-(4-{[2-(4-chlorophenyl)-5-hydroxycyclohex-1-en-1-yl]methyl}piperazin-1-yl)-2-(1H-indol-5-yloxy)-N-({3-nitro-4-[(tetrahydro-2H-pyran-4-ylmethyl)amino]phenyl}sulfonyl)benzamide]",12079.6
3,"CC(c1ccccc1-c1ccc(Cl)cc1)N1CCN(c2ccc(C(=O)NS(=O)(=O)c3ccc(NCC4CCOCC4)c([N+](=O)[O-])c3)c(Oc3ccc4[nH]ccc4c3)c2)CC1 (centres unmarked) [EXAMPLE 252, 4-{4-[1-(4′-chloro-1,1′-biphenyl-2-yl)ethyl]piperazin-1-yl}-2-(1H-indol-5-yloxy)-N-({3-nitro-4-[(tetrahydro-2H-pyran-4-ylmethyl)amino]phenyl}sulfonyl)benzamide]",>8570.3
4,"O=C(NS(=O)(=O)c1ccc(NCCc2ccncc2)c([N+](=O)[O-])c1)c1ccc(N2CCN(Cc3ccccc3-c3ccc(Cl)cc3)CC2)cc1Oc1ccccc1 [Example 169, 4-{4-[(4′-chloro-1,1′-biphenyl-2-yl)methyl]piperazin-1-yl}-N-({3-nitro-4-[(2-pyridin-4-ylethyl)amino]phenyl}sulfonyl)-2-phenoxybenzamide]",91.4
5,"CC1(C)CCC(CN2CCN(c3ccc(C(=O)NS(=O)(=O)c4ccc(NC5CCN(C6CCOCC6)CC5)c([N+](=O)[O-])c4)c(Oc4cccnc4)c3)CC2)=C(c2ccc(Cl)cc2)C1 [EXAMPLE 398, 4-(4-{[2-(4-chlorophenyl)-4,4-dimethylcyclohex-1-en-1-yl]methyl}piperazin-1-yl)-N-({3-nitro-4-[(1-tetrahydro-2H-pyran-4-ylpiperidin-4-yl)amino]phenyl}sulfonyl)-2-(pyridin-3-yloxy)benzamide]",67.69
6,"CN1CC(Nc2ccc(S(=O)(=O)NC(=O)c3ccc(N4CCN(CC5=C(c6ccc(Cl)cc6)CC(C)(C)CC5)CC4)cc3Oc3ccc4[nH]ccc4c3)cc2[N+](=O)[O-])CCC1=O (centres unmarked) [EXAMPLE 282, 4-(4-{[2-(4-chlorophenyl)-4,4-dimethylcyclohex-1-en-1-yl]methyl}piperazin-1-yl)-2-(1H-indol-5-yloxy)-N-({4-[(1-methyl-6-oxopiperidin-3-yl)amino]-3-nitrophenyl}sulfonyl)benzamide]",3434.4
7,"CC(C1=C(c2ccc(Cl)cc2)CC(C)(C)CC1)N1CCN(c2ccc(C(=O)NS(=O)(=O)c3ccc(NCCCN4CCOCC4)c([N+](=O)[O-])c3)c(Oc3ccc4[nH]ccc4c3)c2)CC1 (centres unmarked) [EXAMPLE 257, 4-(4-{1-[2-(4-chlorophenyl)-4,4-dimethylcyclohex-1-en-1-yl]ethyl}piperazin-1-yl)-2-(1H-indol-5-yloxy)-N-({4-[(3-morpholin-4-ylpropyl)amino]-3-nitrophenyl}sulfonyl)benzamide]",100.2
8,"CC1(C)CCC(CN2CCN(c3ccc(C(=O)NS(=O)(=O)c4cnc(OCC5CCOCC5)c(Br)c4)c(Oc4cccc5[nH]ccc45)c3)CC2)=C(c2ccc(Cl)cc2)C1 [EXAMPLE 364, N-{[5-bromo-6-(tetrahydro-2H-pyran-4-ylmethoxy)pyridin-3-yl]sulfonyl}-4-(4-{[2-(4-chlorophenyl)-4,4-dimethylcyclohex-1-en-1-yl]methyl}piperazin-1-yl)-2-(1H-indol-4-yloxy)benzamide]",12197.3
9,"CC1(C)CCC(CN2CCN(c3ccc(C(=O)NS(=O)(=O)c4cc(F)c(NCC5CCOCC5)cc4Cl)c(Oc4ccc5[nH]ccc5c4)c3)CC2)=C(c2ccc(Cl)cc2)C1 [EXAMPLE 379, N-({2-chloro-5-fluoro-4-[(tetrahydro-2H-pyran-4-ylmethyl)amino]phenyl}sulfonyl)-4-(4-{[2-(4-chlorophenyl)-4,4-dimethylcyclohex-1-en-1-yl]methyl}piperazin-1-yl)-2-(1H-indol-5-yloxy)benzamide]",>2.6
10,"CC1(C)CCC(CN2CCN(c3ccc(C(=O)NS(=O)(=O)c4ccc(NCCCN5CCS(=O)(=O)CC5)c([N+](=O)[O-])c4)c(Oc4ccc5[nH]ccc5c4)c3)CC2)=C(c2ccc(Cl)cc2)C1 [EXAMPLE 266, 4-(4-{[2-(4-chlorophenyl)-4,4-dimethylcyclohex-1-en-1-yl]methyl}piperazin-1-yl)-N-[(4-{[3-(1,1-dioxidothiomorpholin-4-yl)propyl]amino}-3-nitrophenyl)sulfonyl]-2-(1H-indol-5-yloxy)benzamide]",>3607.7
11,"CC1(C)CCC(CN2CCN(c3ccc(C(=O)NS(=O)(=O)c4ccc(NC5CCN(C6Cc7ccccc7C6)CC5)c([N+](=O)[O-])c4)c(Oc4cccc5[nH]ccc45)c3)CC2)=C(c2ccc(Cl)cc2)C1 [EXAMPLE 227, 4-(4-{[2-(4-chlorophenyl)-4,4-dimethylcyclohex-1-en-1-yl]methyl}piperazin-1-yl)-N-[(4-{[1-(2,3-dihydro-1H-inden-2-yl)piperidin-4-yl]amino}-3-nitrophenyl)sulfonyl]-2-(1H-indol-4-yloxy)benzamide]",>96.6
12,"CO[C@H]1CC[C@H](CNc2ccc(S(=O)(=O)NC(=O)c3ccc(N4CCN(CC5=C(c6ccc(Cl)cc6)CC(C)(C)CC5)CC4)cc3Oc3ccc4[nH]ccc4c3)cc2[N+](=O)[O-])CC1 [EXAMPLE 311, Trans-4-(4-{[2-(4-chlorophenyl)-4,4-dimethylcyclohex-1-en-1-yl]methyl}piperazin-1-yl)-2-(1H-indol-5-yloxy)-N-[(4-{[(4-methoxycyclohexyl)methyl]amino}-3-nitrophenyl)sulfonyl]benzamide]",>2538.5
13,"CC1(C)CCC(CN2CCN(c3ccc(C(=O)NS(=O)(=O)c4ccc(NCCCN5CCNC(=O)C5)c([N+](=O)[O-])c4)c(Oc4cccc5[nH]ccc45)c3)CC2)=C(c2ccc(Cl)cc2)C1 [EXAMPLE 223, 4-(4-{[2-(4-chlorophenyl)-4,4-dimethylcyclohex-1-en-1-yl]methyl}piperazin-1-yl)-2-(1H-indol-4-yloxy)-N-[(3-nitro-4-{[3-(3-oxopiperazin-1-yl)propyl]amino}phenyl)sulfonyl]benzamide]",574.1
14,"COCCOCCSc1ccc(S(=O)(=O)NC(=O)c2ccc(N3CCN(CC4=C(c5ccc(Cl)cc5)CC(C)(C)CC4)CC3)cc2Oc2cccc3[nH]ccc23)cc1[N+](=O)[O-] [EXAMPLE 381, 4-(4-{[2-(4-chlorophenyl)-4,4-dimethylcyclohex-1-en-1-yl]methyl}piperazin-1-yl)-2-(1H-indol-4-yloxy)-N-[(4-{[2-(2-methoxyethoxy)ethyl]thio}-3-nitrophenyl)sulfonyl]benzamide]",448.3
